Data on six compounds can be found in ChEMBL document CHEMBL1687797, “A mecA-negative strain of methicillin-resistant Staphylococcus aureus with high-level β-lactam resistance contains mutations in three genes” (2010).

Converted amounts (≈) assume the structure as drawn. A value given as a limit tells only on which side of the number the result lay.

Common to all, as to assay type: functional
In experiment [1] the test system is Staphylococcus aureus. In words: Antimicrobial activity against methicillin-resistant and tetracycline-sensitive Staphylococcus aureus COLn.
Experiment [2] concerns Staphylococcus aureus. In words: Antimicrobial activity against methicillin-, tetracycline-susceptible and chromosomal mecA deficient Staphylococcus aureus COLnex.
For experiment [3], the system named is Staphylococcus aureus. In words: Antimicrobial activity against methicillin-resistant Staphylococcus aureus COL.
Experiment [4] deals with Staphylococcus aureus. In words: Antimicrobial activity against beta-lactam-resistant and chromosomal mecA deficient Staphylococcus aureus CRB harboring PBP4 E183A F241R, GdpP N182K and AcrB I960V mutant genes selected after 21 days of serial passage. As to conditions: 504 h.
In experiment [5] the test system is Staphylococcus aureus. In words: Antimicrobial activity against beta-lactam-resistant and chromosomal mecA deficient Staphylococcus aureus CRB harboring PBP4 E183A F241R, GdpP N182K and AcrB I960V mutant genes selected after 21 days of serial passage in ceftobiprole. Particulars: 504 h.

For the compound `Nc1nc(/C(=N/O)C(=O)N[C@@H]2C(=O)N3C(C(=O)O)=C(/C=C4\CCN([C@@H]5CCNC5)C4=O)CS[C@H]23)ns1` [CEFTOBIPROLE], the minimum inhibitory concentration (MIC) (commonly the lowest concentration found to suppress growth) is 1 µg/mL (≈ 1.87 µM) against Staphylococcus aureus [1]; less than 0.25 µg/mL against Staphylococcus aureus [2]; 1 µg/mL (≈ 1.87 µM) in the experiment with Staphylococcus aureus [3]; 128 µg/mL (≈ 239 µM) in the experiment with Staphylococcus aureus [4]; 128 µg/mL (≈ 239 µM) in the experiment with Staphylococcus aureus [5].
Consider `CCOc1ccc2ccccc2c1C(=O)N[C@@H]1C(=O)N2[C@@H]1SC(C)(C)[C@@H]2C(=O)O` [NAFCILLIN], for which the MIC in the experiment on Staphylococcus aureus [1] was 256 µg/mL (≈ 618 µM); against Staphylococcus aureus [2], 0.5 µg/mL (≈ 1.21 µM); against Staphylococcus aureus [5], 128 µg/mL (≈ 309 µM).
For `Cc1nnc(SCC2=C(C(=O)O)N3C(=O)[C@@H](NC(=O)Cn4cnnn4)[C@H]3SC2)s1` [CEFAZOLIN], the results for the MIC with Staphylococcus aureus [1], against Staphylococcus aureus [2] and in the experiment with Staphylococcus aureus [5] were 256 µg/mL (≈ 563 µM), 0.5 µg/mL (≈ 1.1 µM) and greater than 256 µg/mL, respectively.
The matching figures for `CO/N=C(\C(=O)N[C@@H]1C(=O)N2C(C(=O)O)=C(CSc3nc(=O)c(O)nn3C)CS[C@H]12)c1csc(N)n1` [CEFTRIAXONE]: greater than 256 µg/mL, 4 µg/mL (≈ 7.21 µM) and 256 µg/mL (≈ 462 µM).
Regarding `CC1(C)S[C@@H]2[C@H](NC(=O)[C@H](N)c3ccccc3)C(=O)N2[C@H]1C(=O)O` [AMPICILLIN], the minimum inhibitory concentration (MIC) in the experiment with Staphylococcus aureus [2] was less than 0.25 µg/mL; against Staphylococcus aureus [5], 256 µg/mL (≈ 733 µM).
Regarding `CO[C@@]1(NC(=O)Cc2cccs2)C(=O)N2C(C(=O)O)=C(COC(N)=O)CS[C@@H]21` [CEFOXITIN], the figures for the minimal inhibitory concentration (MIC) in the experiment on Staphylococcus aureus [1], in the experiment on Staphylococcus aureus [2] and in the experiment on Staphylococcus aureus [5] were 256 µg/mL (≈ 599 µM), 4 µg/mL (≈ 9.36 µM) and 8 µg/mL (≈ 18.7 µM), respectively.
